Data published in doi:10.1101/2023.10.03.560722, “Drug Discovery in Low Data Regimes: Leveraging a Computational Pipeline for the Discovery of Novel SARS-CoV-2 Nsp14-MTase Inhibitors” (bioRxiv, 2024).
Read-outs that look alike come from different tables or passages of the source.

Assays:
Assay type in all cases: biochemical
[1] = molecular target: T1, PRMT7 (protein arginine methyltransferase 7) (Homo sapiens, UniProt Q9NVM4); experiment: human MTase selectivity panel and IC50
T1 sequence (Q9NVM4 1-692): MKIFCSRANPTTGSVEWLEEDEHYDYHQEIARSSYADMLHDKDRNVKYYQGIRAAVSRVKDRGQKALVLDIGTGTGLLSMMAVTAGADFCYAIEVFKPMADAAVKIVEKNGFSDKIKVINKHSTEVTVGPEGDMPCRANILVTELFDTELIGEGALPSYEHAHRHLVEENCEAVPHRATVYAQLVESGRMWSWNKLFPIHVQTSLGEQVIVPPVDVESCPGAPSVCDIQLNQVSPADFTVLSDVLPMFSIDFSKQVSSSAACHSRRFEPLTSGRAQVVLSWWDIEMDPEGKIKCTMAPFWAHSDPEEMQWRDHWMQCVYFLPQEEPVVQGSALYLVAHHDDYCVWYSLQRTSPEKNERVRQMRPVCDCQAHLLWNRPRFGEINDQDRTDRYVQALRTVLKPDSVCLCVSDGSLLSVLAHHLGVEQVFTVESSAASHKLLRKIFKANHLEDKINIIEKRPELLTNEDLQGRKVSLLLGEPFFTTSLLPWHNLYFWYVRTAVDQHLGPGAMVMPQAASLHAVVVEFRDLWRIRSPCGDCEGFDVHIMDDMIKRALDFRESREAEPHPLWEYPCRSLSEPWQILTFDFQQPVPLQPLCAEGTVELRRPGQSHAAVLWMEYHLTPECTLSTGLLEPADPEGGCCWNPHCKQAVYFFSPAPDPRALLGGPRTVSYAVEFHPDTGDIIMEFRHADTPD

[2] = molecular target: SUV39H2 (Homo sapiens, UniProt Q9H5I1); experiment: human MTase selectivity panel
[3] = molecular target: T2, SETD7 (Homo sapiens, UniProt Q8WTS6); experiment: human MTase selectivity panel
T2 sequence (Q8WTS6 1-366): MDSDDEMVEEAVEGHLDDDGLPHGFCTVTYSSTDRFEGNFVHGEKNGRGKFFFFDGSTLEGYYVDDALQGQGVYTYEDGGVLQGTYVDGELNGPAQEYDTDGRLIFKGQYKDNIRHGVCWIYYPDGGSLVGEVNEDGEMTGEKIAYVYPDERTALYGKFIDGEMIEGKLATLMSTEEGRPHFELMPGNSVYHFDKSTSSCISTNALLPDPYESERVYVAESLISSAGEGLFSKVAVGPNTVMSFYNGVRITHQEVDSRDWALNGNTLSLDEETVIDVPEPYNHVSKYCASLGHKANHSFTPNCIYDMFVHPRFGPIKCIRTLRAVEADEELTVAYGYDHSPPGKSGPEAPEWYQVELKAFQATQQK

[4] = molecular target: SETDB1 (Homo sapiens, UniProt Q15047); experiment: human MTase selectivity panel
[5] = molecular target: PRMT6 (Homo sapiens, UniProt Q96LA8); experiment: human MTase selectivity panel
[6] = molecular target: NSD1 (Homo sapiens, UniProt Q96L73); experiment: human MTase selectivity panel
[7] = molecular target: SETD2 (Homo sapiens, UniProt Q9BYW2); experiment: human MTase selectivity panel
[8] = molecular target: PRMT1 (Homo sapiens, UniProt Q99873); experiment: human MTase selectivity panel
[9] = molecular target: T3, PRMT9 (Homo sapiens, UniProt Q6P2P2); experiment: human MTase selectivity panel
T3 sequence (Q6P2P2 1-845): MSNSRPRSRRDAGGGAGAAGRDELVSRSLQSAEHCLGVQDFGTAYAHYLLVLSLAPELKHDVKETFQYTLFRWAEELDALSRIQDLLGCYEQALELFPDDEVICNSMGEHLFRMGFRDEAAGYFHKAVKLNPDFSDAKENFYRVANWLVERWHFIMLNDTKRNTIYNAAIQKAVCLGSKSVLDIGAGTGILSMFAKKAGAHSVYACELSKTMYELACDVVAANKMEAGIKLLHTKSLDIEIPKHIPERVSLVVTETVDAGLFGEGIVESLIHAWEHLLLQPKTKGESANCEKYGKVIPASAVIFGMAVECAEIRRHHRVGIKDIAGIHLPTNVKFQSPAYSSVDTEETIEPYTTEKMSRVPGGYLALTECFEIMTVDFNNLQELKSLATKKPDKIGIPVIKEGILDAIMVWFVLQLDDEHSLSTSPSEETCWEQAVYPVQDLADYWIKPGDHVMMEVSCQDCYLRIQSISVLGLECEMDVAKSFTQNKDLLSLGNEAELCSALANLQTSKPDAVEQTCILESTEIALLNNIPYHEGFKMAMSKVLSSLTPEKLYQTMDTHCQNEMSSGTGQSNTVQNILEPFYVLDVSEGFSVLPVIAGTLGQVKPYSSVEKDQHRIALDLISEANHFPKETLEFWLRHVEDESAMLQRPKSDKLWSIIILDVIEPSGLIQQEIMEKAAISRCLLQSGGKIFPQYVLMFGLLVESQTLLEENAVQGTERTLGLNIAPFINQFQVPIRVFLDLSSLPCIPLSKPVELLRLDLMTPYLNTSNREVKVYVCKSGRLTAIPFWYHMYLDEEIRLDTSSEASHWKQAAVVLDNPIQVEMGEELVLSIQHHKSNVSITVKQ

[10] = average ± SD, read-out: Activity (%) at 10 µM Average
[11] = read-out: Activity (%) at 10 µM Replicate 1
[12] = read-out: Activity (%) at 10 µM Replicate 2
[13] = read-out: Activity (%) at 10 µM Replicate 3

Chain of NSD1 (Q96L73 whole entry): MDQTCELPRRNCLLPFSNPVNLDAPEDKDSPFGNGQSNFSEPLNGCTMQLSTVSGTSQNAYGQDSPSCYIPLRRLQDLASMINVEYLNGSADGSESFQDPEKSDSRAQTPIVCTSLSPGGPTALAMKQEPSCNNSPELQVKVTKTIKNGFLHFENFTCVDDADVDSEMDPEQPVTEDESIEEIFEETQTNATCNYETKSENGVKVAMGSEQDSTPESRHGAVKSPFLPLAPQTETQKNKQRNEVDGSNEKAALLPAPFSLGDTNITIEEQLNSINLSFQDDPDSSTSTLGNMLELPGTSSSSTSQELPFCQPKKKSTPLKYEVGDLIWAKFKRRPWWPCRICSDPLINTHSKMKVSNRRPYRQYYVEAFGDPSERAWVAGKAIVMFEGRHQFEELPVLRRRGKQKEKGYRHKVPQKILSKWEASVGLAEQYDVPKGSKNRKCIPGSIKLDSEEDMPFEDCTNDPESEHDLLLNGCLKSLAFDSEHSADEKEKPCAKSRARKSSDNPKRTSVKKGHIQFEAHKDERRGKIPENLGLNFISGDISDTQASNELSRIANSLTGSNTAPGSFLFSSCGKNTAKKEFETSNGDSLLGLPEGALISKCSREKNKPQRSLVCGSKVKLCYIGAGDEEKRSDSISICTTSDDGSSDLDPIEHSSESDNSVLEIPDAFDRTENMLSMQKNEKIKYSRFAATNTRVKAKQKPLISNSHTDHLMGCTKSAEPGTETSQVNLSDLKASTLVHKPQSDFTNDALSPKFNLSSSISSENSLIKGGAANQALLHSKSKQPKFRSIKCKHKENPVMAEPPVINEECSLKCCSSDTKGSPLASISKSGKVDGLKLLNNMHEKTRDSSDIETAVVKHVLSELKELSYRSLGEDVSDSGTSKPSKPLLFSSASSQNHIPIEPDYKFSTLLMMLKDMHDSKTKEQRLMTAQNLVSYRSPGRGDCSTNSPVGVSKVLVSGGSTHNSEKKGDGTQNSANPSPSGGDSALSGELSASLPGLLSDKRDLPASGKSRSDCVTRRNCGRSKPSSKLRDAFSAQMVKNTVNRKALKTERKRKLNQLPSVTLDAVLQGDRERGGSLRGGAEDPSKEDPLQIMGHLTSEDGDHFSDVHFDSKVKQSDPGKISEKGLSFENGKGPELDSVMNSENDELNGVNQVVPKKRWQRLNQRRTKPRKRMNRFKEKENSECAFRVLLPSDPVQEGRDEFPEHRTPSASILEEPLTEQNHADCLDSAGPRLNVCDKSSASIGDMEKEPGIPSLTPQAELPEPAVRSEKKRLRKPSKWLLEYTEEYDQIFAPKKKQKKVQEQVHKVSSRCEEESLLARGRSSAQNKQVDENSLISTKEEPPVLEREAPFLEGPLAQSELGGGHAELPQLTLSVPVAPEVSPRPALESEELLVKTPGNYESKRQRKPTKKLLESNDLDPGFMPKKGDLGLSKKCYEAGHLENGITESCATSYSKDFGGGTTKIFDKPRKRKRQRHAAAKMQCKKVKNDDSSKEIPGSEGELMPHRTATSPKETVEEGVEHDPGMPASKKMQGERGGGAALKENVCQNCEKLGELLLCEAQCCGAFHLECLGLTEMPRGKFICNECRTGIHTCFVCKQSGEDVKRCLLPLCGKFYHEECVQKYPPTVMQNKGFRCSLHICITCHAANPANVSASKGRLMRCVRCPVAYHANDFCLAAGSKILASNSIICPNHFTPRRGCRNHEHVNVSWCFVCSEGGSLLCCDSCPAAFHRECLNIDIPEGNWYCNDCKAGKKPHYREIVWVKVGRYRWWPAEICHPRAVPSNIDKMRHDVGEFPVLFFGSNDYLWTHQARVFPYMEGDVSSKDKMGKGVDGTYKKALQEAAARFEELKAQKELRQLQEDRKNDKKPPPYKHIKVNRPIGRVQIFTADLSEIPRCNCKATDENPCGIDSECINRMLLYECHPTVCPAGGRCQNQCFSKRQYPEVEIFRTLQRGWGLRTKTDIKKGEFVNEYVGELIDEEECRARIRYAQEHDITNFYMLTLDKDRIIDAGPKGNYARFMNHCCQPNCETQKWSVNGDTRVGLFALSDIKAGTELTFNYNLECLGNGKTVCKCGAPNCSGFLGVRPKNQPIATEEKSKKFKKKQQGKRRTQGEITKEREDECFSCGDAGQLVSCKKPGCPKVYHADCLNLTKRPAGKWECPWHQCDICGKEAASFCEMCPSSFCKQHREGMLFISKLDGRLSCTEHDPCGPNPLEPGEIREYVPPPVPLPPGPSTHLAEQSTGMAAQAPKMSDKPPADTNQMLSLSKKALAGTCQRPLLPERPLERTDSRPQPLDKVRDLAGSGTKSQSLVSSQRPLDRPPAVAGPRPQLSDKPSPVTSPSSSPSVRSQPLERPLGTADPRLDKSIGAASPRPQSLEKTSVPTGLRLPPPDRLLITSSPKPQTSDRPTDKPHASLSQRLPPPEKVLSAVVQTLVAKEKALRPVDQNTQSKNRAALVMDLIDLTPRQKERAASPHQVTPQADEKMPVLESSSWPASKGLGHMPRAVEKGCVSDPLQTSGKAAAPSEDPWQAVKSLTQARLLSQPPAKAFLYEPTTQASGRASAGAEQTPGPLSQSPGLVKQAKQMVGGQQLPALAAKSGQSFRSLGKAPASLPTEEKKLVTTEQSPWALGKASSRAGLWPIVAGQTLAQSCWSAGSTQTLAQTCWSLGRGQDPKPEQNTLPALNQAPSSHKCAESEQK
Chain of SUV39H2 (Q9H5I1 whole entry): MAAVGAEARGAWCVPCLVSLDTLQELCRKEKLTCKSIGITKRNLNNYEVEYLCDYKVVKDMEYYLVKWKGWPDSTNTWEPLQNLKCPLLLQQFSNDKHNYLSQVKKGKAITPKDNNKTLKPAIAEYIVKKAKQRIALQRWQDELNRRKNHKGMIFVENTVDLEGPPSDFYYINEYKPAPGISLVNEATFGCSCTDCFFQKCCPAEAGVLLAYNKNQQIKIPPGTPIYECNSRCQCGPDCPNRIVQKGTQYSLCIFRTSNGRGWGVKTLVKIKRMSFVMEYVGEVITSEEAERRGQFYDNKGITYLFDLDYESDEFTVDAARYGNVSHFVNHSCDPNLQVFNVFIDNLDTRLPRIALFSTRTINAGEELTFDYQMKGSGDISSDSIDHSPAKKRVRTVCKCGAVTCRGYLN
Chain of PRMT6 (Q96LA8 whole entry): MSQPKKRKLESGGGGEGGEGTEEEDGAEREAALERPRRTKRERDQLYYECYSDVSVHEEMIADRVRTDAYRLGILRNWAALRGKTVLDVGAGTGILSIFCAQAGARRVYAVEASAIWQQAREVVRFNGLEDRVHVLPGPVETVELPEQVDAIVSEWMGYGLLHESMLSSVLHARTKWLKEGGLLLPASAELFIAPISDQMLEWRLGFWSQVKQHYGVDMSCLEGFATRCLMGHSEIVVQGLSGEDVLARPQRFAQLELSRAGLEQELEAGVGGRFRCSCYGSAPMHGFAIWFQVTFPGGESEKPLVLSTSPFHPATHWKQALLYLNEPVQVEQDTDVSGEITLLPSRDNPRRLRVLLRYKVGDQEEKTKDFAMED
Chain of PRMT1 (Q99873 whole entry): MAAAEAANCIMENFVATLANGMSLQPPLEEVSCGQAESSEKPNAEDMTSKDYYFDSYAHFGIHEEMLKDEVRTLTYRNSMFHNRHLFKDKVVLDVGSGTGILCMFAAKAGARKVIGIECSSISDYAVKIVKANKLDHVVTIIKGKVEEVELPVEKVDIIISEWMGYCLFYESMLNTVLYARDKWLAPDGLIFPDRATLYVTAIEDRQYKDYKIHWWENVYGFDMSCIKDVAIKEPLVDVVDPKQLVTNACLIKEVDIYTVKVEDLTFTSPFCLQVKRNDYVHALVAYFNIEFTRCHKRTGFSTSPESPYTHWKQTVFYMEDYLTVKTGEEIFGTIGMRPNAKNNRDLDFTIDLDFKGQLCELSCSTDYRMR

**Q.** With `Nc1ncnc2c1ncn2[C@@H]1O[C@H](CSCc2ccc(Cl)cc2)[C@@H](O)[C@H]1O` [NSC620333] as the compound, how does the IC50 ([1]; PRMT7) read?
**A.** The IC50 was 7 ± 1.5 µM.

**Q.** What about the activity at 10 µM ([1]; PRMT7, average ± SD, read-out: Activity (%) at 10 µM Average) of the same compound?
**A.** The activity at 10 µM was 32 ± 3%.

**Q.** And the activity at 10 µM ([1]; PRMT7, read-out: Activity (%) at 10 µM Replicate 1)?
**A.** The activity at 10 µM was 35%.

**Q.** And the activity at 10 µM ([1]; PRMT7, read-out: Activity (%) at 10 µM Replicate 2)?
**A.** The activity at 10 µM was 29%.

**Q.** What about the activity at 10 µM ([1]; PRMT7, read-out: Activity (%) at 10 µM Replicate 3) of the same compound?
**A.** The activity at 10 µM was 32%.

**Q.** What about the “Hill Slope” value ([1]; PRMT7 IC50 curve) of the same compound?
**A.** Its value is -1.9.

**Q.** And the activity at 10 µM [2, 10]?
**A.** Its activity at 10 µM is 103 ± 7%.

**Q.** What about the activity at 10 µM [2, 11] of the same compound?
**A.** The activity at 10 µM was 108%.

**Q.** And the activity at 10 µM [2, 12]?
**A.** Its activity at 10 µM is 96%.

**Q.** And the activity at 10 µM [2, 13]?
**A.** Its activity at 10 µM is 106%.

**Q.** And the activity at 10 µM [3, 10]?
**A.** Its activity at 10 µM is 87 ± 1%.

**Q.** And the activity at 10 µM [3, 11]?
**A.** Its activity at 10 µM is 85%.

**Q.** And the activity at 10 µM [3, 12]?
**A.** Its activity at 10 µM is 88%.

**Q.** And the activity at 10 µM [3, 13]?
**A.** Its activity at 10 µM is 87%.

**Q.** And the activity at 10 µM [4, 10]?
**A.** The activity at 10 µM was 103 ± 3%.

**Q.** And the activity at 10 µM [4, 11]?
**A.** Its activity at 10 µM is 104%.

**Q.** What about the activity at 10 µM [4, 12] of the same compound?
**A.** Its activity at 10 µM is 106%.

**Q.** And the activity at 10 µM [4, 13]?
**A.** Its activity at 10 µM is 100%.

**Q.** What about the activity at 10 µM [5, 10] of the same compound?
**A.** The activity at 10 µM was 100 ± 3%.

**Q.** What about the activity at 10 µM [5, 11] of the same compound?
**A.** The activity at 10 µM was 97%.

**Q.** And the activity at 10 µM [5, 12]?
**A.** Its activity at 10 µM is 99%.

**Q.** And the activity at 10 µM [5, 13]?
**A.** Its activity at 10 µM is 103%.

**Q.** What about the activity at 10 µM [6, 10] of the same compound?
**A.** The activity at 10 µM was 104 ± 2%.

**Q.** What about the activity at 10 µM [6, 11] of the same compound?
**A.** Its activity at 10 µM is 103%.

**Q.** And the activity at 10 µM [6, 12]?
**A.** The activity at 10 µM was 102%.

**Q.** And the activity at 10 µM [6, 13]?
**A.** Its activity at 10 µM is 107%.

**Q.** And the activity at 10 µM [7, 10]?
**A.** The activity at 10 µM was 103 ± 4%.

**Q.** And the activity at 10 µM [7, 11]?
**A.** Its activity at 10 µM is 99%.

**Q.** And the activity at 10 µM [7, 12]?
**A.** The activity at 10 µM was 103%.

**Q.** And the activity at 10 µM [7, 13]?
**A.** The activity at 10 µM was 107%.

**Q.** And the activity at 10 µM [8, 10]?
**A.** The activity at 10 µM was 91 ± 6%.

**Q.** What about the activity at 10 µM [8, 11] of the same compound?
**A.** Its activity at 10 µM is 97%.

**Q.** And the activity at 10 µM [8, 12]?
**A.** Its activity at 10 µM is 94%.

**Q.** And the activity at 10 µM [8, 13]?
**A.** Its activity at 10 µM is 84%.

**Q.** What about the activity at 10 µM [9, 10] of the same compound?
**A.** Its activity at 10 µM is 117 ± 3%.

**Q.** What about the activity at 10 µM [9, 11] of the same compound?
**A.** The activity at 10 µM was 118%.

**Q.** And the activity at 10 µM [9, 12]?
**A.** The activity at 10 µM was 118%.

**Q.** What about the activity at 10 µM [9, 13] of the same compound?
**A.** Its activity at 10 µM is 113%.
